Activity calls are given as the source filed them. The rule behind the calls is not given here. Residues, ends and D or L forms follow the SMILES beside them.
Target: Core antigen (Hepatitis B virus) (UniProt Q03732)
Assay: Inhibition of Hepatitis B virus capsid formation at 100 uM treated during cell-free wild type HBV Cp synthesis using wheat germ lysates and HBV Cp RNA by Native capsid assay based western blot analysis
Format: subcellular

Core antigen (Hepatitis B virus), sequence (Q03732 as listed by the source): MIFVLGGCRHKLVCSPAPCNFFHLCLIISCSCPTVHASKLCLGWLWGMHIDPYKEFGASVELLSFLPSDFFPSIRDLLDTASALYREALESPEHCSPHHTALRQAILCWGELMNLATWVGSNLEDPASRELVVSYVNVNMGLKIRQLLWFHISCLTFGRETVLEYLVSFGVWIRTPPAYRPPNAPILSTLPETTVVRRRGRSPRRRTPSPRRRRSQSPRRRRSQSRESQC

Row | Compound | inhibition
1 | CC[C@H](C)[C@H](NC(=O)[C@H](C)NC(=O)[C@H](CCC(N)=O)NC(=O)[C@@H]1CCCN1C(=O)[C@H](CC(C)C)NC(=O)[C@H](C)NC(=O)[C@@H](NC(=O)[C@H](Cc1c[nH]cn1)NC(=O)[C@@H](N)Cc1c[nH]cn1)[C@@H](C)O)C(=O)N[C@@H](CC(C)C)C(=O)N[C@@H](CS)C(=O)N[C@@H](Cc1c[nH]c2ccccc12)C(=O)NCC(=O)N[C@@H](CCC(=O)O)C(=O)N[C@@H](CC(C)C)C(N)=O (H-HHTALPQAILCWGEL-NH2) | inactive
2 | CC[C@H](C)[C@H](N)C(=O)N[C@@H](CCCNC(=N)N)C(=O)N[C@H](C(=O)N1CCC[C@H]1C(=O)N1CCC[C@H]1C(=O)N[C@@H](C)C(=O)N[C@@H](Cc1ccc(O)cc1)C(=O)N[C@@H](CCCNC(=N)N)C(=O)N1CCC[C@H]1C(=O)N1CCC[C@H]1C(=O)N[C@@H](CC(N)=O)C(=O)N[C@@H](C)C(=O)N1CCC[C@H]1C(=O)N[C@H](C(=O)N[C@@H](CC(C)C)C(N)=O)[C@@H](C)CC)[C@@H](C)O (H-IRTPPAYRPPNAPIL-NH2) | inactive
3 | CC[C@H](C)[C@H](NC(=O)[C@H](Cc1c[nH]cn1)NC(=O)[C@H](Cc1ccccc1)NC(=O)[C@H](Cc1c[nH]c2ccccc12)NC(=O)[C@H](CC(C)C)NC(=O)[C@H](CC(C)C)NC(=O)[C@H](CCC(N)=O)NC(=O)[C@H](CCCNC(=N)N)NC(=O)[C@H](Cc1ccccc1)NC(=O)[C@@H](N)CCCCN)C(=O)N[C@@H](CO)C(=O)N[C@@H](CS)C(=O)N[C@@H](CC(C)C)C(=O)N[C@H](C(=O)N[C@@H](Cc1ccccc1)C(N)=O)[C@@H](C)O (H-KFRQLLWFHISCLTF-NH2) | inactive
4 | CC(C)C[C@H](NC(=O)[C@H](C)NC(=O)[C@H](CO)NC(=O)[C@H](C)NC(=O)[C@@H](NC(=O)[C@H](CC(=O)O)NC(=O)[C@@H](N)CC(C)C)[C@@H](C)O)C(=O)N[C@@H](Cc1ccc(O)cc1)C(=O)N[C@@H](CCCNC(=N)N)C(=O)N[C@@H](CCC(=O)O)C(=O)N[C@@H](C)C(=O)N[C@@H](CC(C)C)C(=O)N[C@@H](CCC(=O)O)C(=O)N[C@@H](CO)C(=O)N1CCC[C@H]1C(N)=O (H-LDTASALYREALESP-NH2) | inactive
5 | CC[C@H](C)[C@H](NC(=O)[C@H](Cc1c[nH]c2ccccc12)NC(=O)[C@@H](NC(=O)CNC(=O)[C@H](Cc1ccccc1)NC(=O)[C@H](CO)NC(=O)[C@@H](NC(=O)[C@H](CC(C)C)NC(=O)[C@H](Cc1ccc(O)cc1)NC(=O)[C@H](CCC(=O)O)NC(=O)[C@@H](N)CC(C)C)C(C)C)C(C)C)C(=O)N[C@@H](CCCNC(=N)N)C(=O)N[C@H](C(=O)N1CCC[C@H]1C(=O)N1CCC[C@H]1C(N)=O)[C@@H](C)O (H-LEYLVSFGVWIRTPP-NH2) | inactive
6 | CC[C@H](C)[C@H](NC(=O)[C@H](Cc1c[nH]cn1)NC(=O)[C@H](Cc1ccccc1)NC(=O)[C@H](Cc1c[nH]c2ccccc12)NC(=O)[C@@H](N)CC(C)C)C(=O)N[C@@H](CO)C(=O)N[C@@H](CS)C(=O)N[C@@H](CC(C)C)C(=O)N[C@H](C(=O)N[C@@H](Cc1ccccc1)C(=O)NCC(=O)N[C@@H](CCCNC(=N)N)C(=O)N[C@@H](CCC(=O)O)C(=O)N[C@H](C(=O)N[C@H](C(N)=O)C(C)C)[C@@H](C)O)[C@@H](C)O (H-LWFHISCLTFGRETV-NH2) | inactive
7 | N=C(N)NCCC[C@H](NC(=O)[C@@H]1CCCN1)C(=O)N[C@@H](CCCNC(=N)N)C(=O)N[C@@H](CCCNC(=N)N)C(=O)N[C@@H](CCCNC(=N)N)C(=O)N[C@@H](CO)C(=O)N[C@@H](CCC(N)=O)C(=O)N[C@@H](CO)C(=O)N[C@@H](CCCNC(=N)N)C(=O)N[C@@H](CCC(=O)O)C(=O)N[C@@H](CO)C(=O)N[C@@H](CCC(N)=O)C(=O)N[C@@H](CS)C(N)=O (H-PRRRRSQSRESQC-NH2) | inactive
8 | C[C@@H](O)[C@H](NC(=O)[C@H](CCCNC(=N)N)NC(=O)[C@H](CCCNC(=N)N)NC(=O)[C@H](CCCNC(=N)N)NC(=O)[C@@H]1CCCN1)C(=O)N1CCC[C@H]1C(=O)N[C@@H](CO)C(=O)N1CCC[C@H]1C(=O)N[C@@H](CCCNC(=N)N)C(=O)N[C@@H](CCCNC(=N)N)C(=O)N[C@@H](CCCNC(=N)N)C(=O)N[C@@H](CCCNC(=N)N)C(=O)N[C@@H](CO)C(=O)N[C@@H](CCC(N)=O)C(=O)N[C@@H](CO)C(N)=O (H-PRRRTPSPRRRRSQS-NH2) | inactive
9 | N=C(N)NCCC[C@H](NC(=O)[C@H](CCCNC(=N)N)NC(=O)[C@H](CCCNC(=N)N)NC(=O)[C@H](CCCNC(=N)N)NC(=O)[C@@H]1CCCN1C(=O)[C@H](CO)NC(=O)[C@H](CCC(N)=O)NC(=O)[C@H](CO)NC(=O)[C@H](CCCNC(=N)N)NC(=O)[C@H](CCCNC(=N)N)NC(=O)[C@H](CCCNC(=N)N)NC(=O)[C@H](CCCNC(=N)N)NC(=O)[C@@H]1CCCN1C(=O)[C@H](CO)NC(=O)[C@@H]1CCCN1)C(N)=O (H-PSPRRRRSQSPRRRR-NH2) | inactive
10 | N=C(N)NCCC[C@H](NC(=O)[C@H](CO)NC(=O)[C@H](CCC(N)=O)NC(=O)[C@H](CO)NC(=O)[C@H](CCCNC(=N)N)NC(=O)[C@H](CCCNC(=N)N)NC(=O)[C@H](CCCNC(=N)N)NC(=O)[C@H](CCCNC(=N)N)NC(=O)[C@@H]1CCCN1C(=O)[C@H](CO)NC(=O)[C@@H](N)CCC(N)=O)C(=O)N[C@@H](CCC(=O)O)C(=O)N[C@@H](CO)C(=O)N[C@@H](CCC(N)=O)C(=O)N[C@@H](CS)C(N)=O (H-QSPRRRRSQSRESQC-NH2) | inactive
11 | C[C@@H](O)[C@H](NC(=O)[C@H](CCCNC(=N)N)NC(=O)[C@H](CCCNC(=N)N)NC(=O)[C@H](CCCNC(=N)N)NC(=O)[C@@H]1CCCN1C(=O)[C@H](CO)NC(=O)[C@H](CCCNC(=N)N)NC(=O)CNC(=O)[C@H](CCCNC(=N)N)NC(=O)[C@@H](N)CCCNC(=N)N)C(=O)N1CCC[C@H]1C(=O)N[C@@H](CO)C(=O)N1CCC[C@H]1C(=O)N[C@@H](CCCNC(=N)N)C(=O)N[C@@H](CCCNC(=N)N)C(N)=O (H-RRGRSPRRRTPSPRR-NH2) | inactive
12 | N=C(N)NCCC[C@H](NC(=O)[C@H](CO)NC(=O)[C@H](CCC(N)=O)NC(=O)[C@H](CO)NC(=O)[C@H](CCCNC(=N)N)NC(=O)[C@H](CCCNC(=N)N)NC(=O)[C@H](CCCNC(=N)N)NC(=O)[C@H](CCCNC(=N)N)NC(=O)[C@@H]1CCCN1C(=O)[C@H](CO)NC(=O)[C@H](CCC(N)=O)NC(=O)[C@H](CO)NC(=O)[C@H](CCCNC(=N)N)NC(=O)[C@@H](N)CCCNC(=N)N)C(=O)N[C@@H](CCC(=O)O)C(N)=O (H-RRSQSPRRRRSQSRE-NH2) | inactive
13 | CC(C)C[C@H](NC(=O)[C@H](Cc1ccc(O)cc1)NC(=O)[C@H](CCC(=O)O)NC(=O)[C@H](CC(C)C)NC(=O)[C@@H](NC(=O)[C@@H](NC(=O)[C@H](CCC(=O)O)NC(=O)[C@H](CCCNC(=N)N)NC(=O)CNC(=O)[C@H](Cc1ccccc1)NC(=O)[C@@H](NC(=O)[C@H](CC(C)C)NC(=O)[C@H](CS)NC(=O)[C@@H](N)CO)[C@@H](C)O)[C@@H](C)O)C(C)C)C(=O)N[C@H](C(N)=O)C(C)C (H-SCLTFGRETVLEYLV-NH2) | inactive
14 | CC(C)[C@H](NC(=O)[C@@H](NC(=O)[C@@H](NC(=O)[C@@H](N)[C@@H](C)O)[C@@H](C)O)C(C)C)C(=O)N[C@@H](CCCNC(=N)N)C(=O)N[C@@H](CCCNC(=N)N)C(=O)N[C@@H](CCCNC(=N)N)C(=O)NCC(=O)N[C@@H](CCCNC(=N)N)C(=O)N[C@@H](CO)C(=O)N1CCC[C@H]1C(=O)N[C@@H](CCCNC(=N)N)C(=O)N[C@@H](CCCNC(=N)N)C(=O)N[C@@H](CCCNC(=N)N)C(=O)N[C@H](C(N)=O)[C@@H](C)O (H-TTVVRRRGRSPRRRT-NH2) | inactive

Source: ChEMBL document CHEMBL6103552, “Identification of peptide-based hepatitis B virus capsid inhibitors based on the viral core protein” (Bioorg Med Chem Lett, 2025)
